We go through 79 molecules from patent publication US20250090540A1, “PI3K-ALPHA INHIBITORS AND METHODS OF USE THEREOF” (Relay Therapeutics, Inc., priority 2021, published 2025).

For the test, the target named is H1047R PIK3CA enzyme (Homo sapiens, UniProt P42336, H1047R). As to the kind of experiment: ADP-Glo Biochemical PIK3CA Kinase Assay. The conditions noted are these: ADP-Glo biochemical PIK3CA kinase assay. On the technique in general: In ADP-Glo the light output rises with the ADP produced.
Chain of H1047R PIK3CA enzyme (P42336 whole entry H1047R): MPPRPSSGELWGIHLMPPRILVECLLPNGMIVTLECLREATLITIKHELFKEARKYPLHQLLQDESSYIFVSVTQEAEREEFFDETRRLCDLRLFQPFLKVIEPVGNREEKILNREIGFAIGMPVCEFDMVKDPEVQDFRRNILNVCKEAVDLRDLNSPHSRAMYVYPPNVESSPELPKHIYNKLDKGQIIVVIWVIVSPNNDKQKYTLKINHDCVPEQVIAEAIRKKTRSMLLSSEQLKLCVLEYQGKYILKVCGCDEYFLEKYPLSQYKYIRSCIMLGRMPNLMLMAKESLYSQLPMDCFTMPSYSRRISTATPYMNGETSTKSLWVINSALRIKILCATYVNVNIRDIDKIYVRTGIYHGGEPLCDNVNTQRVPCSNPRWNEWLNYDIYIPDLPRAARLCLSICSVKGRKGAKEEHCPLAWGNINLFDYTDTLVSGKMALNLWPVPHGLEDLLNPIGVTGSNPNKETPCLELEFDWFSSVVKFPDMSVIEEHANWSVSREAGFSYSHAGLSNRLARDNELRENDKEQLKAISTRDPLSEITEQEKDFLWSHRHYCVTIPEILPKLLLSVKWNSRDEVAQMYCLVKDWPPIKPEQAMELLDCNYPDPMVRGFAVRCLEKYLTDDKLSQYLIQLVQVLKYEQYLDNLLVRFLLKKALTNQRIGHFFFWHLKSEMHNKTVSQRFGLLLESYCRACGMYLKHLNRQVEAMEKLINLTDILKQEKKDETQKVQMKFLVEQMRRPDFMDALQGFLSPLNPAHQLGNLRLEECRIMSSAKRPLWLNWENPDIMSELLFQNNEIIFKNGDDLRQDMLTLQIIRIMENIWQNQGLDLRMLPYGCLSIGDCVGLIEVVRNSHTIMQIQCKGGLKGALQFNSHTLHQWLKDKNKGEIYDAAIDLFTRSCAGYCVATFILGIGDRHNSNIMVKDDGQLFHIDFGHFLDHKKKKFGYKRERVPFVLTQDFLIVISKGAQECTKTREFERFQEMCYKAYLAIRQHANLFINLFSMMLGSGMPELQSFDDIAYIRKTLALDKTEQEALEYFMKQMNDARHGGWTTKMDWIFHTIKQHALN
Chain of H1047R PIK3CA enzyme (P27986 whole entry partner): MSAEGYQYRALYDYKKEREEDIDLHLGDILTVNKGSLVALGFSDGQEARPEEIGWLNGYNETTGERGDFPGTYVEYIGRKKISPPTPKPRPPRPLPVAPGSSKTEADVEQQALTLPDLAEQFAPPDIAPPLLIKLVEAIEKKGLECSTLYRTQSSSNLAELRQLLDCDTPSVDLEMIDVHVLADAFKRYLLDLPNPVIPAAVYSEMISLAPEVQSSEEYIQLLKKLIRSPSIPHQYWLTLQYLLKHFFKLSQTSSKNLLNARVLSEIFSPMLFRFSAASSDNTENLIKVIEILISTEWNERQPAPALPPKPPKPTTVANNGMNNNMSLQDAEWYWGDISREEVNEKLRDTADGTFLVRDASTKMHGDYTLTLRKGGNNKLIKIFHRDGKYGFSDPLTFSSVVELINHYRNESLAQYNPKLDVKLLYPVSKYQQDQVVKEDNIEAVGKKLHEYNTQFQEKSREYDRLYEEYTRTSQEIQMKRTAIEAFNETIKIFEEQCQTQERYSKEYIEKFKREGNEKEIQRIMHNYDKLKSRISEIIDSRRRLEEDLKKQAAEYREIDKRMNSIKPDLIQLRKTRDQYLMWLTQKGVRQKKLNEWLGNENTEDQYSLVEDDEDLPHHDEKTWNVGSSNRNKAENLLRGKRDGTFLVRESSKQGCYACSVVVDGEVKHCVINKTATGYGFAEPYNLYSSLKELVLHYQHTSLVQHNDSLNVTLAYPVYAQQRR
As usually defined, the IC50 is the midpoint of a concentration-inhibition curve. The low end stands for higher potency, the high end for lower potency. Consider `CNC(=O)c1cnc(Nc2ccccc2C)c(NC(=O)C(C)Cc2ccc(F)cc2)c1` (stereo not shown) [I-471], for which the IC50 fell in the range of 10 to 100 µM.

For the molecule `CNC(=O)c1cnc(Nc2ccccc2C)c(NC(=O)c2nn(C)c3c2CCC3)c1` [I-472], the IC50 was 10 to 100 µM.

The molecule `CNC(=O)c1cnc(Nc2ccccc2C)c(NC(=O)c2cn[nH]c2-c2ccc(F)cc2)c1` [I-473] had an IC50 of 10 to 100 µM.

Take `CNC(=O)c1cnc(Nc2ccccc2C)c(NC(=O)c2cccc3c2OC(C)(C)CC3)c1` [I-474]: the IC50 is 10 to 100 µM.

For `CNC(=O)c1cnc(Nc2ccccc2C)c(NC(=O)C2(c3cccc(F)c3)CC2)c1` [I-475], the IC50 lay within 1 to 10 µM.

Consider `CNC(=O)c1cnc(Nc2ccccc2C)c(NC(=O)c2cc(Br)cc(C(C)C)c2)c1` [I-476], for which the IC50 is 10 to 100 µM.

For the molecule `CNC(=O)c1cnc(Nc2ccccc2C)c(NC(=O)C2CCc3cccc(Cl)c32)c1` (stereo not shown) [I-477], the half-maximal inhibitory concentration (IC50) was in the range of 10 to 100 µM.

`CNC(=O)c1cnc(Nc2ccccc2C)c(NC(=O)c2cc(C)cc(OC)c2)c1` [I-478] came in with an IC50 of 10 to 100 µM.

For the molecule `CNC(=O)c1cnc(Nc2ccccc2C)c(NC(=O)c2ccc(F)c(C)c2Cl)c1` [I-479], the IC50 lay in the range of 10 to 100 µM.

`CNC(=O)c1cnc(Nc2ccccc2C)c(NC(=O)c2cn(C)c3ncccc23)c1` [I-480] had an IC50 of 10 to 100 µM.

`CNC(=O)c1cnc(Nc2ccccc2C)c(NC(=O)C2(c3ccc(F)c(F)c3)CC2)c1` [I-481] had an IC50 of 10 to 100 µM.

`CNC(=O)c1cnc(Nc2ccccc2C)c(NC(=O)CC(C)Oc2ccccc2)c1` (stereo not shown) [I-482] registered an IC50 of 10 to 100 µM.

Take `CNC(=O)c1cnc(Nc2ccccc2C)c(NC(=O)c2coc3cccc(Br)c23)c1` [I-483]: the IC50 was 10 to 100 µM.

`CNC(=O)c1cnc(Nc2ccccc2C)c(NC(=O)c2ccc(C(F)F)cn2)c1` [I-484]: the IC50 was 10 to 100 µM.

Turning to `CNC(=O)c1cnc(Nc2ccccc2C)c(NC(=O)c2cc3c(Br)cccc3[nH]2)c1` [I-485], the IC50 fell in the range of 10 to 100 µM.

On to `Cc1ccccc1Nc1ncc(C(=O)NC2CCOc3ccccc32)cc1NC(=O)c1csc2ccccc12` (stereo not shown) [I-487], for which the IC50 lay in the range of 10 to 100 µM.

`CNC(=O)c1cnc(Nc2ccccc2C)c(NC(=O)c2cc3cc(F)ccc3o2)c1` [I-488] came in with an IC50 of 10 to 100 µM.

As to `CNC(=O)c1cnc(Nc2ccccc2C)c(NC(=O)c2cc(C)c(F)c(C)c2)c1` [I-489], the IC50 was in the range of 1 to 10 µM.

Take `CNC(=O)c1cnc(Nc2ccccc2C)c(NC(=O)c2ccc3occ(Cl)c3c2)c1` [I-490]: the concentration for half-maximal inhibition (IC50) fell in the range of 10 to 100 µM.

The molecule `CNC(=O)c1cnc(Nc2ccccc2C)c(NC(=O)c2cc(C)cc(F)c2F)c1` [I-491] showed an IC50 of 10 to 100 µM.

`CNC(=O)c1cnc(Nc2ccccc2C)c(NC(=O)c2ncsc2C(F)(F)F)c1` [I-492] registered an IC50 of 10 to 100 µM.

The molecule `CNC(=O)c1cnc(Nc2ccccc2C)c(NC(=O)C2CCC(F)(F)CC2)c1` [I-493] yielded an IC50 of 10 to 100 µM.

Turning to `CNC(=O)c1cnc(Nc2ccccc2C)c(NC(=O)c2cccc3ccoc23)c1` [I-494], the IC50 is 10 to 100 µM.

As for `CNC(=O)c1cnc(Nc2ccccc2C)c(NC(=O)c2cc(F)ccc2OC(F)(F)F)c1` [I-495], the IC50 lay within 10 to 100 µM.

Molecule `CNC(=O)c1cnc(Nc2ccccc2C)c(NC(=O)CCc2cc(F)ccc2Br)c1` [I-497] yielded an IC50 of 10 to 100 µM.

On to `Cc1ccccc1Nc1ncc(C(=O)Nc2cnn3cccc(F)c23)cc1NC(=O)c1csc2ccccc12` [I-500], for which the IC50 lay in the range of 10 to 100 µM.

Turning to `CNC(=O)c1cnc(Nc2ccccc2C)c(NC(=O)Cc2cccc(Br)c2F)c1` [I-501], the IC50 was in the range of 10 to 100 µM.

As to `CNC(=O)c1cnc(Nc2ccccc2C)c(NC(=O)Cc2ccc(F)cc2C(F)(F)F)c1` [I-502], the IC50 was in the range of 10 to 100 µM.

Regarding `CNC(=O)c1cnc(Nc2ccccc2C)c(NC(=O)C2(c3cccc(Br)c3)CC2)c1` [I-503], the IC50 lay in the range of 10 to 100 µM.

In turn, `CNC(=O)c1cnc(Nc2ccccc2C)c(NC(=O)c2ccc3c(c2)CCN3C)c1` [I-504] gave an IC50 of 10 to 100 µM.

As to `CNC(=O)c1cnc(Nc2ccccc2C)c(NC(=O)c2cc3ccccc3n2C)c1` [I-505], the IC50 fell in the range of 10 to 100 µM.

Take `CNC(=O)c1cnc(Nc2ccccc2C)c(NC(=O)c2cc3c(Cl)cc(Cl)cc3[nH]2)c1` [I-507]: the IC50 fell in the range of 1 to 10 µM.

`CNC(=O)c1cnc(Nc2ccccc2C)c(NC(=O)c2cn3cccc(Br)c3n2)c1` [I-509]: the IC50 was 10 to 100 µM.

Take `Cc1ccccc1Nc1ncc(C(=O)NCC2(C#N)CCCC2)cc1NC(=O)c1csc2ccccc12` [I-511]: the 50% inhibitory concentration (IC50) is 10 to 100 µM.

`CCOc1c(F)c(F)cc(C(=O)Nc2cc(C(=O)NC)cnc2Nc2ccccc2C)c1F` [I-512] came in with a 50% inhibitory concentration (IC50) of 10 to 100 µM.

`CNC(=O)c1cnc(Nc2ccccc2C)c(NC(=O)C2(c3cccc(Cl)c3)CC2)c1` [I-513] registered an IC50 of 10 to 100 µM.

`CNC(=O)c1cnc(Nc2ccccc2C)c(NC(=O)c2c[nH]c3ccc(Cl)cc23)c1` [I-514] had an IC50 of 10 to 100 µM.

In turn, `CNC(=O)c1cnc(Nc2ccccc2C)c(NC(=O)c2ccc(Br)c3cccnc23)c1` [I-516] had an IC50 of 10 to 100 µM.

`CNC(=O)c1cnc(Nc2ccccc2C)c(NC(=O)CCc2cc(Cl)ccc2Cl)c1` [I-517] came in with an IC50 of 10 to 100 µM.

Molecule `CNC(=O)c1cnc(Nc2ccccc2C)c(NC(=O)c2cccc3ccn(C)c23)c1` [I-518] registered a half-inhibitory concentration (IC50) of 10 to 100 µM.

Regarding `Cc1ccccc1Nc1ncc(C(=O)Nc2c3c(nn2C)CCC3)cc1NC(=O)c1csc2ccccc12` [I-521], the IC50 was in the range of 10 to 100 µM.

`CNC(=O)c1cnc(Nc2ccccc2C)c(NC(=O)c2[nH]c3ccccc3c2Br)c1` [I-522] displayed an IC50 of 10 to 100 µM.

`CNC(=O)c1cnc(Nc2ccccc2C)c(NC(=O)c2ccc3c(ccn3C)c2)c1` [I-523] showed an IC50 of 10 to 100 µM.

`CNC(=O)c1cnc(Nc2ccccc2C)c(NC(=O)c2ccc(C(F)(F)F)n2C)c1` [I-524]: the IC50 is 10 to 100 µM.

Regarding `CNC(=O)c1cnc(Nc2ccccc2C)c(NC(=O)c2c[nH]c3cccc(Cl)c23)c1` [I-528], the IC50 lay within 10 to 100 µM.

For `CNC(=O)c1cnc(Nc2ccccc2C)c(NC(=O)c2cccc3c2OC(C)(C)C3)c1` [I-529], the IC50 is 10 to 100 µM.

As to `Cc1ccccc1Nc1ncc(C(=O)NCC2CCC(F)(F)C2)cc1NC(=O)c1csc2ccccc12` (stereo not shown) [I-531], the IC50 fell in the range of 10 to 100 µM.

`Cc1ccccc1Nc1ncc(C(=O)N2CC(C)(F)C2)cc1NC(=O)c1csc2ccccc12` [I-536] came in with an IC50 of 1 to 10 µM.

As for `CNC(=O)c1cnc(Nc2ccccc2C)c(NC(=O)c2ccc(Cl)c(C)c2F)c1` [I-537], the IC50 lay within 10 to 100 µM.

For `COC1CN(C(=O)c2cnc(Nc3ccccc3C)c(NC(=O)c3csc4ccccc34)c2)C1` [I-541], the IC50 was 1 to 10 µM.

With `CNC(=O)c1cnc(Nc2ccccc2C)c(NC(=O)CCc2cc(Br)ccc2F)c1` [I-542], the IC50 was in the range of 10 to 100 µM.

For `Cc1ccccc1Nc1ncc(C(=O)N2CC(C)(C#N)C2)cc1NC(=O)c1csc2ccccc12` [I-543], the IC50 lay within 1 to 10 µM.

Molecule `Cc1ccccc1Nc1c(NC(=O)c2csc3ccccc23)ccn(C)c1=O` [I-548] showed an IC50 of 1 to 10 µM.

For the molecule `COc1ccc(SC2(C(=O)O)CC(=O)NC2c2ccccc2C)cc1` (stereo not shown) [I-549], the IC50 was 1 to 10 µM.

For the molecule `CNC(=O)c1cnc(NCCC#N)c(NC(=O)c2cc(F)cc(C(F)(F)F)c2)c1` [I-550], the IC50 lay within 1 to 10 µM.

Take `CNC(=O)c1cnc(Nc2ccccc2C)c(NC(=O)c2csc3cncnc23)c1` [I-551]: the IC50 fell in the range of 1 to 10 µM.

The molecule `Cc1ccccc1Nc1c(NC(=O)c2csc3ccccc23)ccc2cc[nH]c12` [I-552] displayed a 50% inhibitory concentration (IC50) of 1 to 10 µM.

Molecule `Cc1ccccc1Nc1nnccc1NC(=O)c1csc2ccccc12` [I-553] gave an IC50 of 1 to 10 µM.

The molecule `CNC(=O)c1cnc(Nc2ccccc2C)c(NC(=O)c2nc(Cl)cc3ccccc23)c1` [I-555] registered an IC50 of 1 to 10 µM.

The molecule `CNC(=O)c1cnc(Nc2ccccc2C)c(NC(=O)c2cc(C)cc(C#N)c2)c1` [I-556] returned an IC50 of 1 to 10 µM.

`CNC(=O)c1cnc(Nc2ccccc2C)c(NC(=O)Cc2cc3cccnc3cc2F)c1` [I-557]: the IC50 was in the range of 1 to 10 µM.

`CNC(=O)c1cnc(Nc2ccccc2C)c(NC(=O)Cc2ccc3ncccc3c2)c1` [I-558]: the 50% inhibitory concentration (IC50) was 1 to 10 µM.

As to `Cc1ccccc1Nc1ncc(C(=O)N[C@@H]2C3CCC(C3)[C@H]2C(=O)O)cc1NC(=O)c1csc2ccccc12` (stereo partly shown) [I-559], the IC50 was 1 to 10 µM.

`Cc1ccccc1Nc1ncc(C(=O)NCC2(O)CCCC2)cc1NC(=O)c1csc2ccccc12` [I-562] yielded an IC50 of 0.5 to 1 µM.

For the molecule `Cc1ccccc1Nc1ncc(C(=O)NCC(C)(C)O)cc1NC(=O)c1csc2ccccc12` [I-565], the IC50 was 1 to 10 µM.

As for `CNC(=O)c1cnc(Nc2ccccc2C)c(NC(=O)c2cccc(F)c2Cl)c1` [I-566], the IC50 was 1 to 10 µM.

On to `CNC(=O)c1cnc(Nc2ccccc2C)c(NC(=O)c2ccc(CO)c(F)c2)c1` [I-567], for which the IC50 is 1 to 10 µM.

As to `Cc1ccccc1Nc1ncc(C(=O)NC2CCN(C)C2)cc1NC(=O)c1csc2ccccc12` (stereo not shown) [I-574], the IC50 was in the range of 1 to 10 µM.

Consider `CNC(=O)c1cnc(Nc2ccccc2C)c(NC(=O)c2ccc3ncc(Br)n3c2)c1` [I-575], for which the IC50 was in the range of 0.5 to 1 µM.

As for `Cc1ccccc1Nc1ncc(C(=O)N2CC3(COC3)C2)cc1NC(=O)c1csc2ccccc12` [I-576], the IC50 was in the range of 1 to 10 µM.

Molecule `CNC(=O)c1cnc(Nc2ccccc2C)c(NC(=O)c2cccc(COC)c2)c1` [I-577] gave an IC50 of 1 to 10 µM.

In turn, `Cc1ccccc1Nc1ncc(C(=O)NCc2ncccn2)cc1NC(=O)c1csc2ccccc12` [I-586] returned an IC50 of 0.5 to 1 µM.

The molecule `CNC(=O)c1cnc(Nc2ccccc2C)c(NC(=O)Cc2cc(Cl)cc(C(F)(F)F)c2)c1` [I-587] returned an IC50 of 1 to 10 µM.

On to `Cc1ccccc1Nc1ncc(C(=O)N2CCC(C)(O)C2)cc1NC(=O)c1csc2ccccc12` (stereo not shown) [I-589], for which the IC50 was in the range of 1 to 10 µM.

Turning to `CNC(=O)c1cnc(Nc2ccccc2C)c(NC(=O)Cc2cc(Br)ccc2Cl)c1` [I-595], the IC50 was in the range of 1 to 10 µM.

With `Cc1ccccc1Nc1ncc(C(=O)N2CC(C(=O)O)C2)cc1NC(=O)c1csc2ccccc12` [I-600], the IC50 was 1 to 10 µM.

Regarding `Cc1ccccc1Nc1ncc(C(=O)Nc2ncnn2C)cc1NC(=O)c1csc2ccccc12` [I-606], the IC50 lay in the range of 1 to 10 µM.

For `Cc1cc(CC(C)NC(=O)c2cnc(Nc3ccccc3C)c(NC(=O)c3csc4ccccc34)c2)on1` (stereo not shown) [I-614], the IC50 lay in the range of 1 to 10 µM.

In the case of `COCC1CN(C(=O)c2cnc(Nc3ccccc3C)c(NC(=O)c3csc4ccccc34)c2)C1` [I-615], the IC50 fell in the range of 1 to 10 µM.
